Results taken from the supplement of paper PMC10307832.

Experiments:
Assay in all cases: relative viability (nuclei count vs DMSO), 5 days (fraction); higher = more cells survive
[1] = test system: EKVX
Method in brief: (§1)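 One day after seeding in 1536-well plates, lung cancer cell lines were dosed by pin tool. Dosing was either single-drug or a fixed anchor-drug dose plus five library-drug doses (not always all listed) in √10 steps. After 5 days, nuclei were stained in one fix-and-stain step and counted on 4× images, and relative viability is the nuclei count of treated wells over that of vehicle wells, given as the median of duplicate plates.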

[2] = test system: NCI-H3122
Method in brief: as §1

[3] = test system: NCI-H1755
Method in brief: as §1

[4] = test system: NCI-H1734
Method in brief: as §1

[5] = test system: NCI-H1993
Method in brief: as §1

[6] = test system: NCI-H1944
Method in brief: as §1

[7] = test system: NCI-H1975
Method in brief: as §1

[8] = test system: COR-L23
Method in brief: as §1

[9] = test system: NCI-H2342
Method in brief: as §1

[10] = test system: HCC-15
Method in brief: as §1

[11] = test system: NCI-H1650
Method in brief: as §1

[12] = test system: BEN
Method in brief: as §1

[13] = test system: HCC-827
Method in brief: as §1

[14] = test system: COR-L 105
Method in brief: as §1

[15] = test system: LU99A
Method in brief: as §1

[16] = test system: HARA
Method in brief: as §1

[17] = test system: NCI-H522
Method in brief: as §1

[18] = test system: NCI-H596
Method in brief: as §1

[19] = test system: 201T
Method in brief: as §1

[20] = test system: LXF-289
Method in brief: as §1

[21] = test system: SK-LU-1
Method in brief: as §1

For `CCCCCCCCCCCC1=C(O)C(=O)C=C(O)C1=O` [Embelin] + CCNC(=O)c1noc(-c2cc(C(C)C)c(O)cc2O)c1-c1ccc(CN2CCOCC2)cc1 [Luminespib] (partner 0.01 µM), the relative viability ([1]; first compound 0.08 µM) was 0.864, the relative viability ([1]; first compound 0.8 µM) was 0.888 and the relative viability ([1]; first compound 2.53 µM) was 0.876. For the same compound, the relative viability ([1]; first compound 8 µM) was 0.966, the relative viability ([2]; first compound 0.08 µM) was 0.068 and the relative viability ([2]; first compound 0.8 µM) was 0.0941. For the same compound, the relative viability ([2]; first compound 2.53 µM) was 0.0799, the relative viability ([2]; first compound 8 µM) was 0.0894 and the relative viability ([3]; first compound 0.08 µM) was 0.257. The relative viability ([3]; first compound 0.8 µM) was 0.603, the relative viability ([3]; first compound 2.53 µM) was 0.637 and the relative viability ([3]; first compound 8 µM) was 0.421. It also gave a relative viability ([4]; first compound 0.08 µM) of 0.201, a relative viability ([4]; first compound 0.8 µM) of 0.208 and a relative viability ([4]; first compound 2.53 µM) of 0.208. It also gave a relative viability ([4]; first compound 8 µM) of 0.197, a relative viability ([5]; first compound 0.08 µM) of 0.848 and a relative viability ([5]; first compound 0.8 µM) of 0.763. The relative viability ([5]; first compound 2.53 µM) was 1.04, the relative viability ([5]; first compound 8 µM) was 0.963 and the relative viability ([6]; first compound 0.08 µM) was 0.726. The relative viability ([6]; first compound 0.8 µM) was 0.849, the relative viability ([6]; first compound 2.53 µM) was 0.882 and the relative viability ([6]; first compound 8 µM) was 0.78. It also gave a relative viability ([7]; first compound 0.08 µM) of 0.296, a relative viability ([7]; first compound 0.8 µM) of 0.282 and a relative viability ([7]; first compound 2.53 µM) of 0.293. For the same compound, the relative viability ([7]; first compound 8 µM) was 0.2, the relative viability ([8]; first compound 0.08 µM) was 0.773 and the relative viability ([8]; first compound 0.8 µM) was 0.73. The relative viability ([8]; first compound 2.53 µM) was 0.911, the relative viability ([8]; first compound 8 µM) was 0.763 and the relative viability ([9]; first compound 0.08 µM) was 0.758. For the same compound, the relative viability ([9]; first compound 0.8 µM) was 0.902, the relative viability ([9]; first compound 2.53 µM) was 0.826 and the relative viability ([9]; first compound 8 µM) was 0.645. For the same compound, the relative viability ([10]; first compound 0.08 µM) was 0.243, the relative viability ([10]; first compound 0.8 µM) was 0.299 and the relative viability ([10]; first compound 2.53 µM) was 0.3. The relative viability ([10]; first compound 8 µM) was 0.302, the relative viability ([11]; first compound 0.08 µM) was 0.16 and the relative viability ([11]; first compound 0.8 µM) was 0.196. It also gave a relative viability ([11]; first compound 2.53 µM) of 0.212, a relative viability ([11]; first compound 8 µM) of 0.185 and a relative viability ([12]; first compound 0.08 µM) of 0.29. It also gave a relative viability ([12]; first compound 0.8 µM) of 1.12, a relative viability ([12]; first compound 2.53 µM) of 0.435 and a relative viability ([12]; first compound 8 µM) of 0.517. The relative viability ([13]; first compound 0.08 µM) was 0.857, the relative viability ([13]; first compound 0.8 µM) was 0.885 and the relative viability ([13]; first compound 2.53 µM) was 0.864. For the same compound, the relative viability ([13]; first compound 8 µM) was 0.657, the relative viability ([14]; first compound 0.08 µM) was 0.778 and the relative viability ([14]; first compound 0.8 µM) was 0.894. For the same compound, the relative viability ([14]; first compound 2.53 µM) was 0.737, the relative viability ([14]; first compound 8 µM) was 0.624 and the relative viability ([15]; first compound 0.08 µM) was 0.273. It also gave a relative viability ([15]; first compound 0.8 µM) of 0.275, a relative viability ([15]; first compound 2.53 µM) of 0.28 and a relative viability ([15]; first compound 8 µM) of 0.279. It also gave a relative viability ([16]; first compound 0.08 µM) of 0.832, a relative viability ([16]; first compound 0.8 µM) of 0.919 and a relative viability ([16]; first compound 2.53 µM) of 0.987. For the same compound, the relative viability ([16]; first compound 8 µM) was 0.821, the relative viability ([17]; first compound 0.08 µM) was 1.26 and the relative viability ([17]; first compound 0.8 µM) was 1.2. It also gave a relative viability ([17]; first compound 2.53 µM) of 1.34, a relative viability ([17]; first compound 8 µM) of 1.12 and a relative viability ([18]; first compound 0.08 µM) of 1.05. The relative viability ([18]; first compound 0.8 µM) was 0.795, the relative viability ([18]; first compound 2.53 µM) was 1.43 and the relative viability ([18]; first compound 8 µM) was 0.904. The relative viability ([19]; first compound 0.08 µM) was 0.987, the relative viability ([19]; first compound 0.8 µM) was 1.08 and the relative viability ([19]; first compound 2.53 µM) was 1.06. For the same compound, the relative viability ([19]; first compound 8 µM) was 1.09, the relative viability ([20]; first compound 0.08 µM) was 0.548 and the relative viability ([20]; first compound 0.8 µM) was 0.619. It also gave a relative viability ([20]; first compound 2.53 µM) of 0.781, a relative viability ([20]; first compound 8 µM) of 0.751 and a relative viability ([21]; first compound 0.08 µM) of 0.206. The relative viability ([21]; first compound 0.8 µM) was 0.186, the relative viability ([21]; first compound 2.53 µM) was 0.182 and the relative viability ([21]; first compound 8 µM) was 0.204.
